Results reported in patent EP0155934B1, “Pharmaceutical compositions for treating androgen-related disorders in humans” (Duke University, priority 1983, dated 1985).

What was measured:
enzyme 5a-reductase = assay: 5a-reductase inhibition, assay of R. J. Moore and J. D. Wilson; assay type: biochemical; settings: compared with progesterone
From the text: (§1) The compounds of the present invention represent an important advance over progestrone and derivatives thereof since they are irreversible inhibitors of the enzyme 5a-reductase. Employing the assay of R. J. Moore and J. D. Wilson [Methods in Enzymology, Vol. XXXVI, Academic Press, N.Y., Ed. W. O'Malley and G. Hardman, p.

5α-Reductase = assay: Preincubation of enzyme with inhibitor and NADPH, tenfold dilution, then assay for 5a-reductase activity; assay type: biochemical; settings: for Picomol Testosterone reduced/mg protein in 45 min + SEM: testosterone 5x10^-8, NADPH 5x10^-4; for manner of combination with / inactivation of the enzyme: in the presence of the co-factor NADPH
From the text: as §1

5a-reductase = assay: Time course of inactivation of 5a-reductase after incubation with NADPH and inhibitor (saturation kinetics); assay type: biochemical; settings: Fig. 1
Description: The time course of inactivation of 5a-reductase following incubation of the enzyme with NADPH and 17a-acetoxy-6-methyleneprogesterone is shown in Fig. 1.
When these rate constants are plotted (as the t 1/2's) against the reciprocal of the inhibitor concentrations, a straight line i obtained with a positive intercept on the y-axis, indicating a saturation phenomenon (Fig. 2). […] The rate constant for this step (kcat) is 4.8 x 10-^3 s-'.

[1] = topical administration of a 0.5% solution in aqueous ethanol; cited from earlier work
[2] = tested on: cell-culture preparations of human prostate; settings: thereby inhibiting growth of the tissue; cited from earlier work

C=C1C[C@H]2[C@@H]3CC[C@H](C(C)=O)[C@@]3(C)CC[C@@H]2[C@@]2(C)CCC(=O)C=C12 [6-methyleneprogesterone]
potency as inhibitors of the enzyme (enzyme 5a-reductase): equipotent with progesterone

C=C1C[C@@H]2[C@H](CC[C@@]3(C)[C@H]2CC[C@]3(OC(C)=O)C(C)=O)[C@@]2(C)CCC(=O)C=C12 [17a-acetoxy-6-methyleneprogesterone, 17-Acetoxy-6-methylene-4-pregnen-3,20-dione]
potency as inhibitors of the enzyme (enzyme 5a-reductase): equipotent with progesterone | Picomol Testosterone reduced/mg protein in 45 min + SEM (5α-Reductase; A: preincubation 15 min with inhibitor 5x10^-7 M and NADPH 6x10^-5, assay: inhibitor 5x10^-8 M, n = 6): 0.71±0.018n = 6 Picomol Testosterone reduced/mg protein in 45 min | Picomol Testosterone reduced/mg protein in 45 min + SEM (5α-Reductase; B: preincubation 15 min without inhibitor, NADPH 6x10^-5, assay: inhibitor 5x10^-8 M, n = 6): 3.0 ±0.26n = 6 Picomol Testosterone reduced/mg protein in 45 min | Picomol Testosterone reduced/mg protein in 45 min + SEM (5α-Reductase; C: preincubation 15 min without inhibitor and without NADPH, assay: inhibitor 5x10^-8 M, n = 6): 2.83±0.09n = 6 Picomol Testosterone reduced/mg protein in 45 min | Picomol Testosterone reduced/mg protein in 45 min + SEM (5α-Reductase; D: preincubation 15 min with inhibitor 5x10^-7 M, no NADPH, assay: inhibitor 5x1-^-8 M, n = 6): 2.63±0.18n = 6 Picomol Testosterone reduced/mg protein in 45 min | Picomol Testosterone reduced/mg protein in 45 min + SEM (5α-Reductase; F: no preincubation, assay: inhibitor 5x10^-8 M, n = 4): 3.14±0.20n = 4 Picomol Testosterone reduced/mg protein in 45 min | manner of combination with / inactivation of the enzyme (5α-Reductase): irreversible | enzyme activity lost (5α-Reductase; preincubation with inhibitor and NADPH, diluting tenfold, assaying for 5a-reductase activity): 75% | time course of inactivation of the enzyme (5a-reductase): pseudo first-order kinetics

CC(=O)[C@H]1CC[C@H]2[C@@H]3CCC4=CC(=O)CC[C@]4(C)[C@H]3CC[C@]12C [Progesterone, reference compound]
manner of combination with / inactivation of the enzyme (5α-Reductase): competitive and reversible | enzyme inactivation on preincubation (5α-Reductase; similar preincubation of the enzyme (with NADPH)): does not result in enzyme inactivation | males with acne with an important decrease in sebum secretion [1]: 45/53 | inhibition of the enzyme [2]: strongly inhibits
